Measured values taken from patent US20230364084A1, “METHODS FOR PREVENTING OR TREATING CONDITIONS RELATED TO PIKFYVE ACTIVITY” (The Regents of the University of Michigan, priority 2020, published 2023).

Legend:
[1] = system: invasive prostate cancer cell lines; assay: Matrigel invasion assay; type: cell-based, human; settings: four invasive prostate cancer cell lines, 24-hour incubation
Description: 2-5×10^5 cells were seeded onto 8-μm Matrigel-coated fluoroblok transwells with serum-free medium and various concentrations of ESK981. Medium containing 10% FBS in the lower chamber served as a chemoattractant. After 24-hour incubation, invaded cells were stained with […] at 37° C., and fluorescence intensity was quantified with a TECAN M1000 plate reader.

VEGFR-2 (KDR) = VEGFR-2 (KDR) (Homo sapiens, UniProt P35968); settings: cited from earlier work
PIP5K1A = target: T1, PIP5K1A (Homo sapiens, UniProt Q99755); assay: kinase dissociation constant analysis (KdELECT); type: binding; settings: 11-point dose-response, duplicate
T1 construct: purchased DiscoveRX (KdELECT)
Description: (§1) Quantitative binding constants (Kd) of ESK981 to PIKfyve, PIP5K1A, PIP5K1C, and PIK3CA were generated using KdELECT® platform (DiscoveRX). An 11-point dose-response of ESK981 (0.05-3000 nM) was used, and the experiment was performed in duplicate. Detailed information is described on the DiscoveRX website (www.discoverx.com).

PIK3CA = target: T2, PIK3CA (Homo sapiens, UniProt P42336); assay: kinase dissociation constant analysis (KdELECT); type: binding; settings: 11-point dose-response, duplicate
T2 construct: purchased DiscoveRX (KdELECT)
Description: as §1

[2] = system: prostate cancer cell lines (VCaP, LNCaP, 22RV1, LNCaP-AR, PC3, DU145); assay: long-term survival assay (14 days, crystal violet); type: cell-based, human; settings: Homo sapiens, 336 h; range across AR positive (VCaP, LNCaP, 22RV1, LNCaP-AR) and AR-negative (PC3, DU145) cell lines, two weeks; read-out: growth inhibitory IC50
Description: Single cell suspensions were seeded into 96-well plates at a density of 1,000-30,000 cells per well. Long-term survival was determined after 14 days of drug incubation. Viable cells were fixed with 4% formaldehyde and subsequently stained with 1% crystal violet. IC50 was calculated using GraphPad Prism.

Tie-2 (TEK) = Tie-2 (TEK) (Homo sapiens, UniProt Q02763); settings: cited from earlier work
[3] = system: GFP-LC3-RFP-LC3ΔG-expressing Myc-CaP cells; assay: autophagic flux detection in Myc-CaP cells; type: cell-based, mouse; settings: 24 hours
Description: For autophagic flux detection, 10,000 cells were plated in 96-well plates and incubated with various compounds in complete medium for 24 hours. GFP and RFP fluorescence intensities were measured on a TECAN M1000 plate reader.

Myc-CaP tumors = assay: Myc-CaP syngeneic murine prostate model in FVB mice; type: in vivo, mouse
Description: MYC-driven murine prostate cancer cells (Myc-CaP) were injected at a density of 1×10^6 subcutaneously into both flanks of 4- to 6-week old FVB mice (Charles River Laboratories) in serum-free medium with 50% Matrigel. When tumors reached ˜50 mm^3, tumor-bearing mice were randomized and treated with 15 mg/kg or 30 mg/kg ESK981 or vehicle (ORA-PLUS) by oral gavage 5 days per week. For the ESK981 and anti-PD-1 combination study, 15 mg/kg ESK981 or vehicle were given 5 days per week by oral gavage, while anti-PD-1 (Cat No. BE0146, BioXcell) or isotype control (Cat No. BE0089, BioXcell) were given at 200 μg per mouse 3 times per week by intraperitoneal injection (i.p.). For the ESK981 and anti-CXCR3 combination study, 15 mg/kg ESK981 or vehicle were given 5 days per week by oral gavage, while anti-CXCR3 (Cat No. BE0249, BioXcell) or isotype control (Cat No. BE0091, BioXcell) were given at 100 μg per mouse 3 times per week by i.p. For the shPikfyve study, Myc-CaP shPikfyve cells were injected at a density of 2×10^6 subcutaneously into both flanks of 4- to 6-week old NSG or FVB mice in serum-free medium with 50% Matrigel. When tumors reached 100 mm^3, tumor-bearing mice were randomized and treated with normal diet or doxycycline 625 mg/kg diet (Envigo). For the shPikfyve and anti-PD-1 combination study, Myc-CaP shPikfyve cells were injected at a density of 2×10^6 subcutaneously into both flanks of 4- to 6-week old FVB mice in serum-free medium with 50% Matrigel. When tumors reached 100 mm^3, tumor-bearing mice were randomized and treated with normal diet or doxycycline 625 mg/kg diet for 7 days, and then anti-PD-1 or isotype control were given at 200 μg per mouse 3 times per week in combination with normal or doxycycline diet.

[4] = system: mouse embryonic fibroblast (MEF) cells; assay: vacuolization and LC3 lipidation in Atg5 wild-type and knockout MEF cells; type: cell-based; settings: 300 nM, 24 hours
[5] = system: MDA-PCa-146-10 neuroendocrine prostate cancer PDX; assay: MDA-PCa-146-10 patient-derived xenograft; type: in vivo, mouse; settings: 30 mg/kg
Description: The University of Texas M.D. Anderson Cancer Center (MDACC) patient-derived xenografts (PDX) series has been previously described^62-64. PDXs were derived from men with CRPC undergoing palliative resections using described protocols^65,66. MDA-PCa-146-12 and 146-10 PDX were derived from a patient initially diagnosed with Gleason 3+4=7 prostate adenocarcinoma with an initial PSA of 10.7 ng/ml. […] PDXs were maintained in male SCID mice by surgically implanting 2 mm^3 tumors coated with 100% Matrigel to both flanks of mice. Once tumors reached 100-200 mm^3 in size, mice were randomized and divided into different treatment groups receiving either 30 mg/kg ESK981 or vehicle (ORA-PLUS) by oral gavage 5 days per week.

[6] = system: CXCL10 in VCaP, PC3 and DU145 cells; assay: CXCL10 mRNA by qPCR in the presence of IFNγ; type: cell-based, human; settings: PC3 and DU145, 24 hours
Description: Total RNA was extracted from cells or tissue using the miRNeasy mini kit (Qiagen), and cDNA was synthesized from 1 μg total RNA using the High Capacity cDNA Reverse Transcription Kit (Applied Biosystems). qPCR was performed using Fast SYBR Green Master Mix (Applied Biosystems) on the ViiA7 Real-Time PCR System (Applied Biosystems). The target mRNA expression was quantified using the ΔΔCt method and normalized to GAPDH expression. The primer sequences used for the SYBR green qPCR are as follows: […]

[7] = 15 mg/kg solo treatment, four weeks

T2 sequence (P42336 whole entry): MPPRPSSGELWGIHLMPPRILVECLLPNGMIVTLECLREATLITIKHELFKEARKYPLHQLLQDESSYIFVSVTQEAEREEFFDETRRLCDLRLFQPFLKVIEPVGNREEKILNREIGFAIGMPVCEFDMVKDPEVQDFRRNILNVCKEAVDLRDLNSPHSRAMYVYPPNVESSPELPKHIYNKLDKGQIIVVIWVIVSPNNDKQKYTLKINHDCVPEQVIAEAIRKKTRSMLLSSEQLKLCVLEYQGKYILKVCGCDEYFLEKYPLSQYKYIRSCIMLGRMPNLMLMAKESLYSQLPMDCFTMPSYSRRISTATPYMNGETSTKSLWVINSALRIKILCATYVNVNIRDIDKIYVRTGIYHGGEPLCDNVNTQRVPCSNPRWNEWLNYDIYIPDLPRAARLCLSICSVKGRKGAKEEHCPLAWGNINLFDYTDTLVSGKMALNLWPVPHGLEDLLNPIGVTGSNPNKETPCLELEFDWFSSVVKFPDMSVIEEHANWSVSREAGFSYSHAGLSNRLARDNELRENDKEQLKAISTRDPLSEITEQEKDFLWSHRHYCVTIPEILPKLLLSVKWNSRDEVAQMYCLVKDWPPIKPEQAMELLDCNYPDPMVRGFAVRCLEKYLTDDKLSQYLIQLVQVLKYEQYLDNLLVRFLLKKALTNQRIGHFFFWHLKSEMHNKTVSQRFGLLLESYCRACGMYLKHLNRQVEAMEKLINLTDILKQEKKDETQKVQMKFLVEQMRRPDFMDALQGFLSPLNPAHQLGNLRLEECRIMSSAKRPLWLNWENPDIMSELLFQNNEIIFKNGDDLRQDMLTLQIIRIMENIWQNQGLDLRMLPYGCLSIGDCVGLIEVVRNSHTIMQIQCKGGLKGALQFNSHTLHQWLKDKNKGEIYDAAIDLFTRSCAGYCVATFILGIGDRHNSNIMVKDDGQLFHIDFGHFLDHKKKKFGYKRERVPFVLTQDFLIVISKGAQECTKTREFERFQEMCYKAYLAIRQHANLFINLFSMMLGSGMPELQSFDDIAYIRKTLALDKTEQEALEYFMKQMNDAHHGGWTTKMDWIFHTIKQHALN
Chain of VEGFR-2 (KDR) (P35968 20-1356, species assumed): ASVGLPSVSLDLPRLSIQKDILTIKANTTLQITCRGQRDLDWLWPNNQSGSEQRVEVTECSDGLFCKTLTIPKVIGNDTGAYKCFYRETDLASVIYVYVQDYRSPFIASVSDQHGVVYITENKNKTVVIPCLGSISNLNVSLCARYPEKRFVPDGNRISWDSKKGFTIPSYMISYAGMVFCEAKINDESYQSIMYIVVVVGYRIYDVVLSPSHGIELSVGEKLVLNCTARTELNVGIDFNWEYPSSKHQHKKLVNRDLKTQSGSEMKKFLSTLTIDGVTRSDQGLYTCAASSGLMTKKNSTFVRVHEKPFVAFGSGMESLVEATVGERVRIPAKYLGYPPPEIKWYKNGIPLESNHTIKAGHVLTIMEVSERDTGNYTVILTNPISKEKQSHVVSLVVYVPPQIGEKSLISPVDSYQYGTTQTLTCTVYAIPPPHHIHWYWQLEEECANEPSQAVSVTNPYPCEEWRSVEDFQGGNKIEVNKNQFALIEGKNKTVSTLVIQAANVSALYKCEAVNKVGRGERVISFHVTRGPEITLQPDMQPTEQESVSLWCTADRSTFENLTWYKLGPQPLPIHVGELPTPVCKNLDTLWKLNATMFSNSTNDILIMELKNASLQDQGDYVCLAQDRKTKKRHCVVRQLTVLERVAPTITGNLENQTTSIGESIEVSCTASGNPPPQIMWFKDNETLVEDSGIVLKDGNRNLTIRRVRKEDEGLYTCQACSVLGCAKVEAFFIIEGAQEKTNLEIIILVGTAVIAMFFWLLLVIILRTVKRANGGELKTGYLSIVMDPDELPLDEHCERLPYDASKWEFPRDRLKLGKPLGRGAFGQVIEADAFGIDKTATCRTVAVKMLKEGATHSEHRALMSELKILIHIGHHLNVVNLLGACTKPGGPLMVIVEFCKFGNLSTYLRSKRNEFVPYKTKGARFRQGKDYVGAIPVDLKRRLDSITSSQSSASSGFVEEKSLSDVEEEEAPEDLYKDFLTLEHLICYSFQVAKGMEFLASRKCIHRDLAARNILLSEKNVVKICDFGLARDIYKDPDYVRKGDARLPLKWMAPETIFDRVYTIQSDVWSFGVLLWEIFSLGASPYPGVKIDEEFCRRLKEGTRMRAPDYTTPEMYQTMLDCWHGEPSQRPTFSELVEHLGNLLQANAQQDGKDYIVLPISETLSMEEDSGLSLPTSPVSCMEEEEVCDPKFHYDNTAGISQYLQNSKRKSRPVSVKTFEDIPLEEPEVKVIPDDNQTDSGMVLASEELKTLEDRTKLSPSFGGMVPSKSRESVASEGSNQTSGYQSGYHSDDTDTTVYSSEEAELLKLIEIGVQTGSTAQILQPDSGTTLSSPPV
Chain of Tie-2 (TEK) (Q02763 23-1124, species assumed): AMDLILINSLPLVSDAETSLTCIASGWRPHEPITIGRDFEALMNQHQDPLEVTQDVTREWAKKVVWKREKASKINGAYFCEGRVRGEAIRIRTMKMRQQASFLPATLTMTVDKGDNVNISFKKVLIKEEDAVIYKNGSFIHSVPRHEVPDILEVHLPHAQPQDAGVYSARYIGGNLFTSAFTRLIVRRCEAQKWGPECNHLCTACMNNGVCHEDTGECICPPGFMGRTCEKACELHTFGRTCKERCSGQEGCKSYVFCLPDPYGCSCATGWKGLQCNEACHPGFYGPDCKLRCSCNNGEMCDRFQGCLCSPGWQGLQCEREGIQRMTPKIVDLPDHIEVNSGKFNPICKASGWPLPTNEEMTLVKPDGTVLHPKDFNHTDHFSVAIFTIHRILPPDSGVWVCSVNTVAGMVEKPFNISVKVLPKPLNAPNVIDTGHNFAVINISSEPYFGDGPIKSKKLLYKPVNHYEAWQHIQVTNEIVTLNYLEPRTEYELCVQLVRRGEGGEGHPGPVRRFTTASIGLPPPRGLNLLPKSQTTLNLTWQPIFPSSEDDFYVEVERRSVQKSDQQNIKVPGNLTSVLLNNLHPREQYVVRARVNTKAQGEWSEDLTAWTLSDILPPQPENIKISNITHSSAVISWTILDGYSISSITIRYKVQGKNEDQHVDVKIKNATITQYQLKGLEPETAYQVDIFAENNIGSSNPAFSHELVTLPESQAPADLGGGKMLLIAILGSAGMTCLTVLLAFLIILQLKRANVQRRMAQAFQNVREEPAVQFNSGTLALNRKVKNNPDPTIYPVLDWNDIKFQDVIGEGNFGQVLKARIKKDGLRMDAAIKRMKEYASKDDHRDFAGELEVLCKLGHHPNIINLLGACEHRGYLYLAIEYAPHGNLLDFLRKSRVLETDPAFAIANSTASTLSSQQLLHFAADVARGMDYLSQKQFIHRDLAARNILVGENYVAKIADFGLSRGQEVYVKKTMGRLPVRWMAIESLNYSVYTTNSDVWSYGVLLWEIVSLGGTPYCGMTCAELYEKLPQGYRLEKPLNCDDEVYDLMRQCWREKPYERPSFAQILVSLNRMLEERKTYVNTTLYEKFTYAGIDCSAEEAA
T1 sequence (Q99755 whole entry): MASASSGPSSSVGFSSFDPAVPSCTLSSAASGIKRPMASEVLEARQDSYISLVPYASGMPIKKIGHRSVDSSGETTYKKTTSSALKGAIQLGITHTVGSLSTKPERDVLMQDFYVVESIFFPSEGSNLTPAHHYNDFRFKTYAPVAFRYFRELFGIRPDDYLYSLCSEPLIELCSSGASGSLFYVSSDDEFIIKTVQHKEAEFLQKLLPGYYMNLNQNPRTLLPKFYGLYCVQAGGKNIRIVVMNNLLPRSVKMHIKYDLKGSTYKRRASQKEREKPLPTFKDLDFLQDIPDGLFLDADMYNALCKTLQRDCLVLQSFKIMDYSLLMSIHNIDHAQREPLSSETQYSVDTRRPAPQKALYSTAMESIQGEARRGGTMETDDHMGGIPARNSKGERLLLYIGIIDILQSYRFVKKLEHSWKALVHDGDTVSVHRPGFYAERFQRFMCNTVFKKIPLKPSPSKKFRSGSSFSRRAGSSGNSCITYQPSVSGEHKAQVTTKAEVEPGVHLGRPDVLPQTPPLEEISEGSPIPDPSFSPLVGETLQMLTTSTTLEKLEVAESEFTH

Compound: CC(C)Cn1c2ccc(Nc3ncccn3)cc2c2c3c(c4c(c21)CCc1nn(C)cc1-4)C(=O)NC3 [ESK981, 13-isobutyl-4-methyl-10-(pyrimidin-2-ylamino)-1,2,4,7,8,13-hexahydro-6H-indazolo[5,4-a]pyrrolo[3,4-c]carbazol-6-one]
- invasion [1]: inhibited invasion in a dose-dependent manner
- activity against kinase (VEGFR-2 (KDR)): potent activity
- Kd (PIP5K1A): 230 nM
- Kd (PIK3CA): > 10000 nM
- IC50 [2]: 35 to 192 nM
- activity against kinase (Tie-2 (TEK)): potent activity
- autophagic flux [3]: inhibited
- effect of co-treatment on the anti-PD-1 tumor inhibitory effect (Myc-CaP tumors; 15 mg/kg ESK981 with anti-PD-1, 6 weeks): strongly enhanced
- Cd3 mRNA in tumors (Myc-CaP tumors; [7]): upregulated
- Cxcl10 mRNA in tumors (Myc-CaP tumors; [7]): upregulated
- Cd3 mRNA levels in tumors (Myc-CaP tumors; 15 mg/kg, 30 mg/kg): dose-dependent upregulation
- tumor doubling time (progression-free survival) (Myc-CaP tumors; 15 mg/kg, 30 mg/kg): significantly increased tumor doubling time
- average Cxcl10 levels in tumors (Myc-CaP tumors; 15 mg/kg, 30 mg/kg, dose-dependent): significantly increased
- tumor growth (Myc-CaP tumors; 15 mg/kg, 30 mg/kg, oral gavage 5 days per week, three weeks): dose-dependent growth inhibition
- LC3 lipidation in tumors (Myc-CaP tumors; 15 mg/kg, five days of treatment): elevated LC3 lipidation
- bioluminescent-negative tumors (Myc-CaP tumors; 30 mg/kg group, day 19): five out of ten
- CD3+ T cell trafficking in the tumor microenvironment (Cd3 RNA ISH) (Myc-CaP tumors; single agents): increased
- LC3 lipidation ([4]; Atg5 knockout MEFs): abolished
- vacuolization ([4]; autophagy-deficient Atg5−/− MEFs): largely attenuated
- vacuolization ([4]; wild-type MEF cells): significantly induced
- tumor weights ([5]; day 21): significant decreases in tumor weights
- tumor growth ([5]; oral gavage 5 days per week, SCID mice): Significant inhibition of tumor growth
- expression of CXCL10 in the presence of IFNγ [6]: enhance expression of CXCL10
